Laboratory results taken from patent publication US20240261398A1 (priority 2018, published 2024).

Columns and labels:
[1] = system: A/California/07/2009 virus (H1N1; CA07); set-up: species or system BALB/c mice; details: mouse, in vivo; hydrate
[2] = system: A/California/07/2009 virus (H1N1; CA07); set-up: species or system BALB/c mice; details: mouse, in vivo; hydrate; remark: listed apart in the source
influenza virus = type: in vivo, mice; details: nasal immunization with vaccine + compound, 100 μg/dose (saponin 10 μg/dose), Day 0, 14, 28

Structure (SMILES): C[C@@H]1O[C@@H](OC[C@H]2O[C@@H](Oc3c(-c4ccc(O)c(O)c4)oc4cc(O)cc(O)c4c3=O)[C@H](O)[C@@H](O)[C@@H]2O)[C@H](O)[C@H](O)[C@H]1O [Rutin hydrate]
- Antibody titers in primary screening, Vaccine + compound [1]: 1280.00
- Antibody titers in secondary screening, Vaccine + compound [2]: 720
- Antibody titers (IgG) (influenza virus): 280
